This note sets out measurements from ChEMBL document CHEMBL5236586, “Novel ginsenoside derivatives induce apoptosis in HepG-2 cells via the MDM2-p53 signaling pathway” (Bioorg Med Chem Lett, 2022).

Calls of active or inactive are those of the source. No cut-off for these calls is given here. Where only a bound is given, the exact number is not on record here.

The subject of data set [1] is HepG2. Nature of the data set: Potency index, ratio of PD IC50 to test compound IC50 for antiproliferative activity against human HepG2 cells assessed as inhibition of cell proliferation by MTT assay. The data set is classed as functional. Background: Tetrazolium dyes change colour on reduction, which living cells bring about.
The subject of another data set is A549. Nature of the data set: Antiproliferative activity against human A549 cells assessed as inhibition of cell proliferation by MTT assay. The data set is classed as functional, cell-based.
A further data set deals with PC-3. Nature of the data set: Antiproliferative activity against human PC-3 cells assessed as inhibition of cell proliferation by MTT assay. Type of data set: functional, cell-based.
Data set [2] relates to HepG2. Nature of the data set: Antiproliferative activity against human HepG2 cells assessed as inhibition of cell proliferation by MTT assay. Type of data set: functional, cell-based.
A short description of data set [3]: Cytotoxicity against mouse L929 cells assessed as inhibition of cell proliferation by MTT assay. The data set is classed as toxicity, cell-based.
The subject of data set [4] is HepG2. Nature of the data set: Effect on cell morphology in human HepG2 cells at 5 uM by DAPI staining based analysis. Type of data set: functional.
Data set [5] deals with HepG2. In words: Effect on cell morphology in human HepG2 cells assessed as cell shrinkage at 1.25 to 5 uM by DAPI staining based analysis. The data set is classed as functional. As to conditions: dose 1.25-5 µM.
Data set [6] concerns HepG2. Nature of the data set: Induction of apoptosis in human HepG2 cells at 1.25 to 5 uM by DAPI staining based analysis. As to conditions: dose 1.25-5 µM. The data set is classed as functional, cell-based.
For data set [7], the target named is E3 ubiquitin-protein ligase Mdm2 (Homo sapiens) (UniProt Q00987). Nature of the data set: Inhibition of MDM2 in human HepG2 cells assessed as decrease in MDM2 protein level at 1.25 to 5 uM incubated for 12 hrs by Western blot analysis. Type of data set: cell-based. As to conditions: dose 1.25-5 µM. Background: A western blot detects proteins with antibodies after separation by electrophoresis.

The target is the same in data set [8]. In words: Inhibition of MDM2 in human HepG2 cells assessed as increase in p53 protein level at 1.25 to 5 uM incubated for 12 hrs by Western blot analysis. Type of data set: cell-based. The conditions noted are these: dose 1.25-5 µM.
Data set [9] has as its system HepG2. In words: Induction of apoptosis in human HepG2 cells assessed as increase in cleaved PARP level at 1.25 to 5 uM incubated for 12 hrs by Western blot analysis. The data set is classed as functional, cell-based. As to conditions: dose 1.25-5 µM.
Data set [10] concerns HepG2. In words: Induction of apoptosis in human HepG2 cells assessed as increase in Bax level at 1.25 to 5 uM incubated for 12 hrs by Western blot analysis. The data set is classed as functional, cell-based. The conditions noted are these: dose 1.25-5 µM.
For data set [11], the system named is HepG2. In words: Induction of apoptosis in human HepG2 cells assessed as increase in cleaved caspase-3 level at 1.25 to 5 uM incubated for 12 hrs by Western blot analysis. Type of data set: functional, cell-based. The conditions noted are these: dose 1.25-5 µM.
Data set [12] concerns HepG2. Nature of the data set: Induction of apoptosis in human HepG2 cells assessed as decrease in Bcl-2 expression level at 1.25 to 5 uM incubated for 12 hrs by Western blot analysis. The data set is classed as functional, cell-based. The conditions noted are these: dose 1.25-5 µM.
In data set [13] the test system is HepG2. In words: Induction of apoptosis in human HepG2 cells assessed as decrease in caspase-3 expression level at 1.25 to 5 uM incubated for 12 hrs by Western blot analysis. Type of data set: functional, cell-based. The conditions noted are these: dose 1.25-5 µM.
Data set [14] has as its system HepG2. Nature of the data set: Antiproliferative activity against human HepG2 cells assessed as inhibition of cell growth. The data set is classed as functional, cell-based.

Sequence of E3 ubiquitin-protein ligase Mdm2 (Homo sapiens) (Q00987 whole entry, looked up): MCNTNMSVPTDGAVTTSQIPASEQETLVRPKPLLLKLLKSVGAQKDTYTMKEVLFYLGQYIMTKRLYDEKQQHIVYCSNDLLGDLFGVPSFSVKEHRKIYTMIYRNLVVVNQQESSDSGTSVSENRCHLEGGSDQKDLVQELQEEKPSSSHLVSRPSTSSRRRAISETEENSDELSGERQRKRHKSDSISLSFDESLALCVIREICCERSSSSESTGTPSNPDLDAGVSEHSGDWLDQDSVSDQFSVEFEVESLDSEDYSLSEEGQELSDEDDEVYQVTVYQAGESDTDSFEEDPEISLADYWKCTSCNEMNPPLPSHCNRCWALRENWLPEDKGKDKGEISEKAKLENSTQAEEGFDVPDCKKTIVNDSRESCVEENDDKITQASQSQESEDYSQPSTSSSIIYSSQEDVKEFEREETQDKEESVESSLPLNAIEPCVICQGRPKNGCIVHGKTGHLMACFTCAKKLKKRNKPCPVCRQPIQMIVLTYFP

By IC50 is commonly meant the concentration needed to halve the response being measured. Turning to `Cc1ccc(-c2nc(SCC(=O)O[C@H]3CC[C@@]4(C)[C@@H](CC[C@]5(C)[C@H]4C[C@@H](O)[C@@H]4[C@H]([C@@]6(C)CCCC(C)(C)O6)CC[C@]45C)C3(C)C)[nH]c(=O)c2C#N)cc1`, the “Ratio IC50” value in the data set with HepG2 [1] is listed as 12. The IC50 was found to be 6.77 µM in the data set on A549, 7.73 µM with PC-3, 4.51 µM in the data set on HepG2 [2] and 77.4 µM in [3].

Take `CC1(C)CCC[C@](C)([C@@H]2CC[C@]3(C)[C@@H]2[C@H](O)CC2[C@@]4(C)CC[C@H](OC(=O)CSc5nc(-c6ccc(C(F)(F)F)cc6)c(C#N)c(=O)[nH]5)C(C)(C)[C@@H]4CC[C@]23C)O1` (some centres undefined): the “Ratio IC50” value with HepG2 [1] was found to be 21. In addition, the IC50 with A549 was determined as 7.03 µM; in the data set on PC-3, 8.74 µM; in the data set with HepG2 [2], 3.16 µM; in [3], 68.7 µM.

For `O=c1[nH]cc(F)c(=O)[nH]1` [FLUOROURACIL], the IC50 with A549 was 29.2 µM; in data set [3], > 100 µM. Moreover, the outcome in the data set on HepG2 [4] was inactive.

On to `CC(C)c1ccc(-c2nc(SCC(=O)O[C@H]3CC[C@@]4(C)[C@@H](CC[C@]5(C)[C@H]4C[C@@H](O)[C@@H]4C([C@@]6(C)CCCC(C)(C)O6)CC[C@]45C)C3(C)C)[nH]c(=O)c2C#N)cc1` (some centres undefined), for which, in the data set on HepG2 [1], the “Ratio IC50” value was found to be 28. The IC50 with A549 came out at 6.98 µM; in the data set on PC-3, 7.04 µM; in the data set on HepG2 [2] it was 2.13 µM; in data set [3] it was 58.8 µM. Further, the result (with HepG2 [5]; in the data set on HepG2 [6]; in data set [7]; in data set [8]; in the data set on HepG2 [9]; in the data set with HepG2 [10]) was Active. In addition, the outcome with HepG2 [11], in the data set on HepG2 [12] and in the data set on HepG2 [13] was Active.

Regarding `CC1(C)CCC[C@](C)([C@@H]2CC[C@]3(C)[C@@H]2[C@H](O)C[C@H]2[C@@]4(C)CC[C@H](OC(=O)CSc5nc6cccc(Cl)c6c(=O)[nH]5)C(C)(C)[C@@H]4CC[C@]23C)O1`, the IC50 was 83 µM in the data set on A549, > 100 µM in the data set on PC-3, 67.8 µM with HepG2 [2] and > 100 µM in data set [3].

With `N#Cc1c(-c2cn(-c3ccccc3)nc2-c2cc3ccccc3o2)[nH]c(NN)nc1=O`, the IC50 in the data set on HepG2 [14] amounted to 12.5 µM.

With `CC1(C)CCC[C@](C)([C@@H]2CC[C@]3(C)[C@@H]2[C@H](O)CC2[C@@]4(C)CC[C@H](OC(=O)CSc5nc(-c6cccc(Cl)c6)c(C#N)c(=O)[nH]5)C(C)(C)[C@@H]4CC[C@]23C)O1` (some centres undefined), the IC50 in the data set on A549 was determined as 7.14 µM; with PC-3 it was 8.44 µM; in the data set with HepG2 [2], 7.09 µM; in data set [3], 74.9 µM.

Take `CC1(C)CCC[C@](C)([C@@H]2CC[C@]3(C)[C@@H]2[C@H](O)C[C@H]2[C@@]4(C)CC[C@H](OC(=O)CSc5nc(-c6ccncc6)c(C#N)c(=O)[nH]5)C(C)(C)[C@@H]4CC[C@]23C)O1`: the 50% inhibitory concentration (IC50) with A549 worked out at 17.3 µM; with PC-3 it was 15.8 µM; with HepG2 [2] it was 12.8 µM; in data set [3], 77.1 µM.

As for `CC1(C)CCC[C@](C)([C@@H]2CC[C@]3(C)[C@@H]2[C@H](O)CC2[C@@]4(C)CC[C@H](OC(=O)CSc5nc(-c6ccc(F)cc6)c(C#N)c(=O)[nH]5)C(C)(C)[C@@H]4CC[C@]23C)O1` (some centres undefined), the 50% inhibitory concentration (IC50) came out at 9.09 µM with A549, 7.82 µM in the data set on PC-3, 7.75 µM with HepG2 [2] and 76 µM in data set [3].
